In PMC8765781, “A platform of assays for the discovery of anti-Zika small-molecules with activity in a 3D-bioprinted outer-blood-retina model” (PLoS ONE, 2022):
Like-named read-outs stand apart in the source and are kept apart here.

Tested on: wild-type ZIKV (Ugandan MR766 strain) in Vero cells
Assay: ZIKV cytopathic effect (CPE) inhibition qHTS assay, CellTiter-Glo readout
Assay type: cell-based, Zika virus
Details: for AC50: Zika virus, Vero
[1] = read-out: Log AC50 (M) (converted)

SMILES | CC-v2 (curve class classification of the dose response curve) | Efficacy | Identified as active in CPE assay validation set | AC50 | AC50 [1]
COc1cc(O)c2c(c1)/C=C/C[C@H](O)[C@H](O)C(=O)/C=C\C[C@H](C)OC2=O [NCGC00186421-07] | -3 | -83.256 | – | – | –
COC(=O)[C@]12CCC(C)(C)C[C@H]1[C@H]1C(=O)C=C3[C@@]4(C)C=C(C#N)C(=O)C(C)(C)[C@@H]4CC[C@@]3(C)[C@]1(C)CC2 [NCGC00186460, bardoxolone methyl, reference compound] | – | – | identified | – | –
COc1cc2c(NC3CCN(C(C)C)CC3)nc(C3CCCCC3)nc2cc1OCCCN1CCCC1 [NCGC00189220-03] | – | -26.68 | – | 7.31e-05 M | 7.31e-05 M
CC(C)(O)CCc1ccc(OCc2cc(-c3cccc(OC(F)F)c3)c3ncccc3c2)cc1 [NCGC00249759-02] | – | -26.837 | – | 3.26e-05 M | 3.26e-05 M
COc1c(Cl)cc2c([nH]c3cnccc32)c1NC(=O)c1cccnc1C [NCGC00263021-04] | -2.2 | -34.501 | – | 6.51e-05 M | 6.51e-05 M
O=C1[C@H](CC[C@H](O)c2ccc(F)cc2)[C@@H](c2ccc(O)cc2)N1c1ccc(F)cc1 [NCGC00263575-07] | – | -30.405 | – | 2.91e-05 M | 2.91e-05 M
CCN(CC)C(=O)Nc1ccc(OCC(O)CNC(C)(C)C)c(C(C)=O)c1 (centres unmarked) [NCGC00344562-02] | -3 | -33.868 | – | 3.26e-05 M | 3.26e-05 M
CN1CCC(COc2cnc(-c3cccc(Cn4nc(-c5cccc(C#N)c5)ccc4=O)c3)nc2)CC1 [NCGC00345793-08] | – | -35.437 | – | 6.51e-05 M | 6.51e-05 M
CC[C@H](CC#N)OC(=O)N[C@@H](C)c1cccc(NC(=O)Nc2ccc(-c3cnco3)c(OC)c2)c1 [NCGC00345803-05] | – | -31.6 | – | 7.31e-05 M | 7.31e-05 M
COc1cc(Nc2nc3ccccc3nc2N[S+](=O)([O-])c2ccc(NC(=O)c3ccc(C)c(OC)c3)cc2)cc(OC)c1 [NCGC00346541-08] | – | -33.022 | – | 5.8e-05 M | 5.8e-05 M
C[C@H]1[C@H](C)CC[C@]2(C(=O)O)CC[C@]3(C)C(=CC[C@@H]4[C@@]5(C)C[C@@H](O)[C@H](O)[C@@](C)(CO)[C@@H]5CC[C@]43C)[C@H]12 [NCGC00346584-02] | – | -33.569 | – | 5.8e-05 M | 5.8e-05 M
Cn1cc(-c2ccncc2)c(-c2ccc(OCc3ccc4ccccc4n3)cc2)n1 [NCGC00346630-05] | – | -23.654 | – | 2.59e-05 M | 2.59e-05 M
O=C(CCN1CCN(C(=O)OCc2cc(Cl)cc(Cl)c2)CC1)c1ccc2[nH]c(=O)oc2c1 [NCGC00346939-05] | – | -25.5 | – | 7.31e-05 M | 7.31e-05 M
OCCCNc1cc(-c2ccnc(Nc3cccc(Cl)c3)n2)ccn1 [NCGC00346940-02] | -2.1 | -105.653 | – | 6.51e-05 M | 6.51e-05 M
c1ccc(CNc2nc(N3CCOc4ccccc43)nc3c2CCCC3)cc1 [NCGC00347065-03] | – | -32.702 | – | 5.17e-05 M | 5.17e-05 M
CC1=CC(=O)[C@@H](O)[C@@]2(C)C1C[C@H]1OC(=O)[C@H](O)[C@@]3(O)[C@@H](C)[C@@H](O)[C@H](O)C2[C@@]13C (some centres unmarked) [NCGC00347801-02] | -1.2 | -51.479 | – | 1.43e-05 M | 1.43e-05 M
C=C(C)C(=O)O[C@H]1[C@@H]2[C@H](C)C(=O)O[C@@H]2C[C@@H](C)[C@@H]2C=CC(=O)[C@]21C [NCGC00347858-02] | -2.1 | -111.628 | – | 4.53e-05 M | 4.53e-05 M
Nc1c([S+](=O)([O-])c2ccccc2)c2nc3ccccc3nc2n1-c1ccc(F)cc1 [NCGC00351779-01] | – | -26.957 | – | 7.31e-05 M | 7.31e-05 M
